Laboratory results reported in patent US8183293B2, “Phenyl acetic acid derivatives” (Amgen Inc., priority 2007, dated 2012).
Entries after “also recorded” stand apart in the source; their conditions may differ. Like-named read-outs stand apart in the source and are kept apart here.

Key:
human CRTH2 = target: T1, human CRTH2 (Homo sapiens, UniProt Q9Y5Y4); assay: Human CRTH2 binding assay (3H-PGD2, 293(124) cells)
T1 construct: Full-length human CRTH2 cDNA was generated by polymerase chain reaction (PCR); expressed in transfected cells; host or cells: 293 cells stably transfected with pHLT124 (pCDNA3.1(+)), named 293(124)
T1 sequence (Q9Y5Y4 1-395): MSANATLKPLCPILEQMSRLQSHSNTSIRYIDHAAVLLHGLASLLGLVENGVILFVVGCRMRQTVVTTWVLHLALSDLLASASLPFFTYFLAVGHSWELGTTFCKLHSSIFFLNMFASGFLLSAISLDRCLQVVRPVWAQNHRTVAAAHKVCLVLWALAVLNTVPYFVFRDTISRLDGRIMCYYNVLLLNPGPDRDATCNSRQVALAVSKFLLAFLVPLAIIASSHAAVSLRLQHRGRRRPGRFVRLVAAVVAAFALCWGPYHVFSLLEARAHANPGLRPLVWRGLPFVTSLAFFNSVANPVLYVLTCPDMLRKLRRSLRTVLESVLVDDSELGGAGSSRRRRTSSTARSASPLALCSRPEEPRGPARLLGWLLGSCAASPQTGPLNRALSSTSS
Method: Full-length human CRTH2 cDNA was generated by polymerase chain reaction (PCR) using human genomic DNA as template and subsequently cloned into pCDNA3.1(+) (Invitrogen), generating a CRTH2 expression plasmid pHLT124. The plasmid was transfected into 293 cells, […], using LipofectAMINE™ reagents (Gibco/BRL). G418 ([…]) was added to the culture 48 h after transfection and cells were maintained under selection for 3 weeks to ensure that all surviving cells stably expressed CRTH2. These cells are labeled as 293(124) hereafter.
^3H-PGD2 binding assay was performed using 293(124) cells. […] Each assay contained 25,000 cells, appropriate amount of test compound when necessary and a mixture of 1 nM ^3H-PGD2 (Amersham Pharmacia Biotech) and 30 nM of unlabeled PGD2 (Cayman Chemicals) in […] final volume. The cell mixture was incubated at room temperature for 2.5 h with shaking and the cells were separated from free ^3H-PGD2 and transferred onto a filter plate using a cell harvester. Radioactivity bound to the cells was measured on a liquid scintillation counter. Nonspecific binding was determined in the presence of […] of unlabeled PGD2.

DP = target: T2, DP (Homo sapiens, UniProt Q13258); assay: DP activity (IC50); type: binding
T2 sequence (Q13258 1-359): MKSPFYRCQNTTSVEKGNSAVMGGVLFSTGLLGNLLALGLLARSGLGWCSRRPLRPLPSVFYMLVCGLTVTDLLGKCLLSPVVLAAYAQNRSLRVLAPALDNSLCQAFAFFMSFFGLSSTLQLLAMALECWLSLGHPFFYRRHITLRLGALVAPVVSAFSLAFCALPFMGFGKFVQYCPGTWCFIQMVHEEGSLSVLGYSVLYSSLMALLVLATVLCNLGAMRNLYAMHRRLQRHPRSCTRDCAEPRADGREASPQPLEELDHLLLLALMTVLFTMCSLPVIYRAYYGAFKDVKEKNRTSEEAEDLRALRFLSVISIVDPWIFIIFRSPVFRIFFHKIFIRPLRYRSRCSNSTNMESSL

[1] = system: antigen-induced airway response; assay: Sheep airway response model of asthma; type: in vivo
Text: (§1) The sheep and guinea pig models employed herein are disclosed in publications such as Abraham, W. M., Sheep Models of Allergic Bronchoconstriction)(in Allergy and Allergic Disease 2:1045 1977); Isenberg-Feig, H et al., Animal Models of Allergic Asthma (in Current Allergy and Asthma Reports 2003, 3:70-78); Abraham, W. M., et al. Am J Respir Crit. Care Med vol. 159. pp. 1205-1214, 1999; Abraham, W. M. et al, Am J Respir Crit. Care Med vol. 169. pp. 97-104, 2004; and Jones, T. R. et al Can. J. Physiol. Pharmacol. 73: 191-201 1995.

[2] = In vitro covalent binding to protein, rat liver microsomes; type: in vitro ADME; conditions: in the presence of NADPH cofactor
Method: (§2) The propensity of AMG 009 metabolism to generate reactive metabolites was conducted in studies to evaluate in vitro covalent binding to protein by standardized methods (Day, et al., J. Pharmacol. Toxicol. Methods., 52, 278-285 (2005)).

[3] = In vitro covalent binding to protein, human liver microsomes; type: in vitro ADME; conditions: in the presence of NADPH cofactor
Method: as §2

[4] = system: PGD2-induced airway constriction; assay: Guinea pig model of airway constriction; type: in vivo; conditions: animals pretreated with aerosolized PGD2 at doses as high as 0.625 mg/mL, FIG. 5
Text: as §1, with “FIGS. 6A and 6B are graphs comparing the efficacy of AMG 009 (FIG. 6A) and Example Compound 14 (FIG. 6A) in the Guinea Pig Model of airway constriction. The” for “The”

[5] = Hygroscopicity of polymorph; type: physicochemical
[6] = buffer, read-out: CRTH2 IC50 (nM) Buffer
[7] = plasma, read-out: CRTH2 IC50 (nM) Plasma
[8] = buffer, read-out: DP IC50 (nM) Buffer
[9] = plasma, read-out: DP IC50 (nM) Plasma
[10] = whole blood, read-out: CRTH2 IC50 (nM) whole blood
[11] = whole blood, read-out: DP IC50 (nM) whole blood

Structure (SMILES)	IC50 (human CRTH2; [6])	IC50 (human CRTH2; [7])	IC50 (DP; [8])	IC50 (DP; [9])	further results
CC(C)(C)NC(=O)c1ccc(Oc2cc(F)c(CC(=O)O)cc2Cl)c(NS(=O)(=O)c2ccc(OC(F)(F)C(F)F)cc2Cl)c1	4.6 nM	10.9 nM	5.9 nM	52.5 nM	
Cc1ccc(S(=O)(=O)Nc2cc(C(=O)NC(C)(C)C)ccc2Oc2cc(F)c(CC(=O)O)cc2Cl)c(Cl)c1	3.3 nM	6.1 nM	5.6 nM	17.2 nM	
CC(C)(C)NC(=O)c1ccc(Oc2cc(F)c(CC(=O)O)cc2Cl)c(NS(=O)(=O)c2ccc(C(F)(F)F)cc2Cl)c1	3.5 nM	8.1 nM	12.6 nM	43 nM	IC50 (human CRTH2; [10]): 1.1 nM; IC50 (DP; [11]): 26.6 nM
CC1(NC(=O)c2ccc(Oc3cc(F)c(CC(=O)O)cc3Cl)c(NS(=O)(=O)c3ccc(C4CC4)cc3Cl)c2)CCC1	3.9 nM	7.6 nM	4.4 nM	25.7 nM	
O=C(O)Cc1cc(Cl)c(Oc2ccc(C(=O)NC3CCC3)cc2NS(=O)(=O)c2ccc(C3CC3)cc2Cl)cc1F	3.3 nM	7.9 nM	4.6 nM	18 nM	IC50 (human CRTH2; [10]): 0.5 nM; IC50 (DP; [11]): 0.6 nM
CC(C)(C)NC(=O)c1ccc(Oc2cc(F)c(CC(=O)O)cc2Cl)c(NS(=O)(=O)c2ccc(OC(F)(F)F)cc2Cl)c1	9.3 nM	19.4 nM	14.5 nM	37.8 nM	IC50 (human CRTH2; [10]): 2 nM; IC50 (DP; [11]): 17.3 nM
CC1(NC(=O)c2ccc(Oc3cc(F)c(CC(=O)O)cc3Cl)c(NS(=O)(=O)c3ccc(C(F)(F)F)cc3Cl)c2)CCC1	8.1 nM	18.4 nM	15.1 nM	41.9 nM	
CC(C)(C)NC(=O)c1ccc(Oc2cc(F)c(CC(=O)O)cc2F)c(NS(=O)(=O)c2ccc(C3CC3)cc2Cl)c1	3 nM	10 nM	5 nM	39 nM	
CC1(NC(=O)c2ccc(Oc3cc(F)c(CC(=O)O)cc3Cl)c(NS(=O)(=O)c3ccc(OC(F)(F)F)cc3Cl)c2)CCC1	6.2 nM	15.7 nM	10.7 nM	31.9 nM	
Cc1ccc(S(=O)(=O)Nc2cc(C(=O)NC3(C)CCC3)ccc2Oc2cc(F)c(CC(=O)O)cc2Cl)c(Cl)c1	3.2 nM	12.1 nM	2.8 nM	25.6 nM	
CCC(C)(C)NC(=O)c1ccc(Oc2cc(F)c(CC(=O)O)cc2Cl)c(NS(=O)(=O)c2ccc(C(F)(F)F)cc2Cl)c1	10 nM	35.8 nM	15.6 nM	51.6 nM	
CCC(C)(C)NC(=O)c1ccc(Oc2cc(F)c(CC(=O)O)cc2Cl)c(NS(=O)(=O)c2ccc(C)cc2Cl)c1	4.9 nM	10.9 nM	3.9 nM	21.8 nM	IC50 (DP; [11]): 18.3 nM
Cc1ccc(S(=O)(=O)Nc2cc(C(=O)NC3CCC3)ccc2Oc2cc(F)c(CC(=O)O)cc2Cl)c(Cl)c1	1.3 nM	7 nM	2.2 nM	22.9 nM	
CC(C)(C)NC(=O)c1ccc(Oc2cc(F)c(CC(=O)O)cc2Cl)c(NS(=O)(=O)c2ccc(Cl)cc2Cl)c1	5 nM	13 nM	18 nM	79 nM	
CCCCNC(=O)c1ccc(Oc2ccc(CC(=O)O)cc2OC)c(NS(=O)(=O)c2ccc(Cl)cc2Cl)c1 [AMG 009]					antigen-induced late airway response ([1]; 7.5 mg/kg (multi-dose), FIG. 3A): inhibits; antigen-induced development of airway hyperreactivity to carbochol ([1]; 7.5 mg/kg (multi-dose), FIG. 3B): inhibits; antigen-induced late airway response ([1]; 7.5 mg/kg (single dose), FIG. 1A): inhibits; antigen-induced development of airway hyperreactivity to carbochol ([1]; 7.5 mg/kg (single dose), FIG. 1B): inhibits; antigen-induced late airway response ([1]; 15 mg/kg (single dose), FIG. 2A): inhibits; antigen-induced development of airway hyperreactivity to carbochol ([1]; 15 mg/kg (single dose), FIG. 2B): inhibits; allergen-induced recruitment of inflammatory cells to the lung (BAL) ([1]; sheep airway response model): blocked; also recorded: effective in blocking; antigen-induced development of airway hyper-reactivity (AHR) to carbachol ([1]; sheep airway response model): blocks; antigen-induced late airway response (LAR) ([1]; sheep airway response model): inhibits; covalent binding of radioactive equivalents to protein [2]: ~50 pmol equivalent/mg protein; covalent binding of radioactive equivalents to protein [3]: ~50 pmol equivalent/mg protein
CC(C)(C)NC(=O)c1ccc(Oc2cc(F)c(CC(=O)O)cc2Cl)c(NS(=O)(=O)c2ccc(C3CC3)cc2Cl)c1 [Example Compound 14, 2-(4-(4-(tert-butylcarbamoyl)-2-(2-chloro-4-cyclopropylphenylsulfonamido)phenoxy)-5-chloro-2-fluorophenyl)acetic acid]					response in Guinea Pig Model [4]: dose-dependent response
CC(C)(C)NC(=O)c1ccc(Oc2cc(F)c(CC(=O)O)cc2Cl)c(NS(=O)(=O)c2ccc(C3CC3)cc2Cl)c1 [Form II, 2-(4-(4-(tert-butylcarbamoyl)-2-(2-chloro-4-cyclopropylphenylsulfonamido)phenoxy)-5-chloro-2-fluorophenyl)acetic acid]					hygroscopicity [5]: non hygroscopic
CC(C)(C)NC(=O)c1ccc(Oc2cc(F)c(CC(=O)O)cc2Cl)c(NS(=O)(=O)c2ccc(C3CC3)cc2Cl)c1 [drawing 69]	3 nM	8 nM	3 nM	26 nM	IC50 (human CRTH2; [10]): 0.2 nM; IC50 (DP; [11]): 1 nM
CCNC(=O)c1ccc(Oc2ccc(CC(=O)O)cc2Cl)c(NS(=O)(=O)c2ccc(Cl)cc2Cl)c1 [reference compound]	2.2 nM	71 nM	12 nM		
CCNC(=O)c1ccc(Oc2ccc(CC(=O)O)cc2Cl)c(NS(=O)(=O)c2ccc(OC)cc2)c1 [reference compound]	2.7 nM	16.7 nM			
CCNC(=O)c1ccc(Oc2ccc(CC(=O)O)cc2Cl)c(NS(=O)(=O)c2ccc(C)cc2)c1 [reference compound]	2.3 nM	26 nM			
CCNC(=O)c1ccc(Oc2ccc(CC(=O)O)cc2)c(NS(=O)(=O)c2ccc(Cl)cc2Cl)c1 [reference compound]	4 nM	92 nM	120 nM	8420 nM	
CCCCNC(=O)c1ccc(Oc2ccc(CC(=O)O)cc2Cl)c(NS(=O)(=O)c2ccc(Cl)cc2)c1 [reference compound]			9.1 nM	100 nM	
CCNC(=O)c1ccc(Oc2cc(Br)c(CC(=O)O)cc2OC)c(NS(=O)(=O)c2ccc(F)cc2F)c1 [reference compound]	1.6 nM	25.7 nM	> 1e+06 nM		
